Experimental data reported in patent US10130682B2, “Methods of using pigment epithelium derived factor (PEDF) for the treatment and prevention of agent-induced gonadal or uterine toxicity” (Ramot at Tel-Aviv University Ltd., priority 2014, dated 2018).

Assays:
[1] = test system: ovariectomized (OVX) ICR mice; test: Uterine weight, sub-acute tamoxifen model in ovariectomized mice; assay type: in vivo, mouse; set-up: uterine weight: dose or concentration left out as unconfirmed; conditions: tamoxifen 0.3-3.3 daily for 7 days
Protocol: (§1) DXR damage was evaluated in 7 weeks ICR female mice following treatment for superovulation with pregnant mares' serum (PMSG, 7 IU) SC on day 0 and human chorionic gonadotropin (hCG, […]) SC on day 2. On day 1, mice were administered with DXR (6 mg/kg) or saline (control) IV. Mice ovaries were retrieved on day 3 (FIG. 1A). The ability of rPEDF to overcome the destructive effect of DXR 7 weeks ICR female mice were treated with DXR (6 mg/kg) or saline (control) IV on day 0, rPEDF (2 mg/kg) or TRIS (control) was administered SC on day 1, followed by induction for superovulation with PMSG (7 IU) SC on day 4 and hCG (7 IU) SC on day 6. Mice ovaries were retrieved on day 7 (FIG. 2A). […] Mice uteri were excised at day 7. […] Mice treated with tamoxifen alone served as control. […] Mice treated with tamoxifen alone served as control.
(§2) At the end of each experiment, uteri were isolated, excised and weighed.

VEGF [2] = test: Uterine VEGF protein (western blot), sub-acute tamoxifen model; assay type: in vivo, mouse; conditions: tamoxifen daily for 7 days, various concentrations
Protocol: as §1
(§3) Samples were homogenized in cold lysis buffer (20 mM HEPES, 150 mM NaCl and 0.2% Igepal; sigma) and centrifuged at 12,000 rpm, for 15 min, at 4° C.). Proteins were separated by sodium dodecyl sulfate polyacrylamide gel electrophoresis (SDS-PAGE; 10%; Bio-Rad, Israel). […] Approximate molecular masses were determined by comparison with the migration of pre-stained protein standards (Bio-Rad). […] Intensity of the protein bands was quantified by Image J […] (NIH).

PEDF [3] = test: Uterine PEDF protein (western blot), sub-acute tamoxifen model; assay type: in vivo, mouse; conditions: tamoxifen daily for 7 days, increasing doses
PNPLA2 [4] = test: Uterine PNPLA2 mRNA (qPCR), sub-acute tamoxifen model; assay type: in vivo, mouse; conditions: sub-acute tamoxifen treatment
Protocol: DXR damage was evaluated in 7 weeks ICR female mice following treatment for superovulation with pregnant mares' serum (PMSG, 7 IU) SC on day 0 and human chorionic gonadotropin (hCG, […]) SC on day 2. On day 1, mice were administered with DXR (6 mg/kg) or saline (control) IV. Mice ovaries were retrieved on day 3 (FIG. 1A). […] Mice ovaries were retrieved on day 7 (FIG. 2A). […] Mice uteri were excised at day 7.
(§4) Total RNA was isolated from various tissues (ovaries, eyes) or from granulosa cells, using Trizol reagent (Invitrogen) according to manufacturer's instructions, and quantified with the Nano-Drop spectrophotometer (ND-1000; Thermo Scientific). First-strand cDNA was produced by RT (Maxima™ Reverse transcriptase, Thermo Scientific) from a total of 1 μg RNA, using oligo-dt primers (Thermo Scientific). DNA was amplified using 1 μl RT reaction and 50 pmol gene-specific primers in ReadyMix™ mixture (Sigma). Polymerase Chain Reaction (PCR) products were separated by 1.5% agarose gel electrophoresis and visualized by ethidium bromide staining. Changes in the level of expression of mRNA were detected by SYBR green reagent (SYBR® Green PCR Master Mix, ABI, Carlsbad, Calif., USA) along with 15 ng cDNA and specific primers, on a StepOnePlus Real-Time PCR System (Applied Biosystems, Foster City, Calif., USA).

Laminin receptor [5] = test: Uterine Laminin receptor mRNA (qPCR), sub-acute tamoxifen model; assay type: in vivo, mouse; conditions: sub-acute tamoxifen treatment
OVX ICR mice = test: Uterine weight, prolonged tamoxifen model in ovariectomized mice; assay type: in vivo, mouse; conditions: tamoxifen 2.5 μg/mouse 5 days per week for one month
Protocol: as §1, §2

VEGF [6] = test: Uterine VEGF protein (western blot), prolonged tamoxifen model; assay type: in vivo, mouse; conditions: tamoxifen 2.5 μg/mouse 5 days per week for one month
Protocol: as §1, §3

PEDF [7] = test: Uterine PEDF protein (western blot), prolonged tamoxifen model; assay type: in vivo; conditions: tamoxifen 2.5 μg/mouse 5 days per week for one month
PNPLA2 [8] = test: Uterine PNPLA2 mRNA (qPCR), prolonged tamoxifen model; assay type: in vivo, mouse; conditions: one month of tamoxifen treatment
Laminin receptor [9] = test: Uterine Laminin receptor mRNA (qPCR), prolonged tamoxifen model; assay type: in vivo, mouse; conditions: one month of tamoxifen treatment
CD34 = CD34 immunohistochemical staining of uterine blood vessels, prolonged tamoxifen model; assay type: in vivo, mouse; conditions: prolonged tamoxifen alone vs control
Protocol: as §1
Paraffin-embedded sections were deparaffinized, microwave heated while being subjected to an antigen retrieval agent (H-3300, Vector Laboratories Inc., Burlingame, Calif., USA), cooled on ice to room temperature, rinsed in PBS, incubated for 1 hour with PBSTg (0.2% Tween and gelatin in PBS), washed with PBS, blocked for 10 minutes in blocking solution (Cell Marque Corporation, Calif., USA) and incubated overnight with anti PNPLA2 or anti-CD34 primary antibodies. […]

ERα [10] = test: Uterine ERα mRNA (qPCR), sub-acute tamoxifen model; assay type: in vivo, mouse; conditions: sub-acute tamoxifen treatment
[11] = test system: progesterone receptor (PR); test: Uterine PR mRNA (qPCR), sub-acute tamoxifen model; assay type: in vivo, mouse; conditions: sub-acute tamoxifen treatment
ERα [12] = test: Uterine ERα mRNA (qPCR), prolonged tamoxifen model; assay type: in vivo, mouse; conditions: prolonged tamoxifen treatment
[13] = test system: progesterone receptor (PR); test: Uterine PR mRNA (qPCR), prolonged tamoxifen model; assay type: in vivo, mouse; conditions: prolonged tamoxifen treatment
Protocol: DXR damage was evaluated in 7 weeks ICR female mice following treatment for superovulation with pregnant mares' serum (PMSG, 7 IU) SC on day 0 and human chorionic gonadotropin (hCG, […]) SC on day 2. On day 1, mice were administered with DXR (6 mg/kg) or saline (control) IV. Mice ovaries were retrieved on day 3 (FIG. 1A). The ability of rPEDF to overcome the destructive effect of DXR 7 weeks ICR female mice were treated with DXR (6 mg/kg) or saline (control) IV on day 0, rPEDF (2 mg/kg) or TRIS (control) was administered SC on day 1, followed by induction for superovulation with PMSG (7 IU) SC on day 4 and hCG (7 IU) SC on day 6. Mice ovaries were retrieved on day 7 (FIG. 2A). […] Mice uteri were excised at day 7. […] Mice treated with tamoxifen alone served as control. […]
as §4, with “First-strand cDNA was produced by RT (Maxima™ Reverse transcriptase, Thermo Scientific) from a total of 1 μg RNA, using oligo-dt primers (Thermo Scientific).” left out, “Polymerase Chain Reaction (PCR) products were separated by 1.5% agarose gel electrophoresis and visualized by ethidium bromide staining.” left out

PEDF mRNA [14] = test: PEDF mRNA level (qPCR) in ovaries of superovulated mice treated with DXR; assay type: in vivo, mouse; conditions: DXR 6 mg/kg IV vs saline; superovulated 7 weeks ICR female mice
Protocol: FIG. 1A is an illustration depicting the experimental setting: 7 weeks ICR female mice (n=5/group) were treated for superovulation with the standard pregnant mares' serum/human chorionic gonadotropin (PMSG/hCG) protocol [Ben-Aharon et al. Reproductive Biology and Endocrinology: RB&E (2010) 8: 20]. Twenty four hours post PMSG mice were administrated with DXR or saline (control). Ovaries were retrieved twenty four hours post hCG. […] Total RNA was extracted from the ovaries and changes in PEDF mRNA (relative quantification; RQ) level were measured by qPCR using specific primers for PEDF (SEQ ID NOs: 10-11); calibrated with HPRT (SEQ ID NOs: 6-7).
DXR damage was evaluated in 7 weeks ICR female mice following treatment for superovulation with pregnant mares' serum (PMSG, 7 IU) SC on day 0 and human chorionic gonadotropin (hCG, […]) SC on day 2. On day 1, mice were administered with DXR (6 mg/kg) or saline (control) IV. Mice ovaries were retrieved on day 3 (FIG. 1A). […]
Total RNA was isolated from various tissues (ovaries, eyes) or from granulosa cells, using Trizol reagent (Invitrogen) according to manufacturer's instructions, and quantified with the Nano-Drop spectrophotometer (ND-1000; Thermo Scientific). […] DNA was amplified using 1 μl RT reaction and 50 pmol gene-specific primers in ReadyMix™ mixture (Sigma). […]

LH-15 cells = test: MTT cell viability assay in LH-15 granulosa cells under H2O2; assay type: cell-based, rat; conditions: H2O2 100-500 μM, 24 hours, 2% serum
Protocol: (§5) Rat granulosa cell line LH-15 [Suh et al. J Cell Biol (1992) 119: 439-450] was cultured in hormone-free DMEM-F12 medium, supplemented with penicillin (100 IU/ml; Biological Industries), streptomycin ([…]; Biological Industries) and 10% charcoal-stripped fetal bovine serum (CS-FBS; Invitrogen) (culture medium), as described previously (Breckwoldt et al. 1996, Sasson & Amsterdam 2002). Cells were serum-starved for 16 hours (0.1% CS-FBS) prior to and during recombinant PEDF (rPEDF) stimulation or incubated in 2% CS-FBS during H2O2 stimulation.
Equal amount of LH-15 cells were seeded onto 6-well plates to a final volume of 500 μl. Following treatments, each well was incubated for 30 minutes with 10 μl of MTT [3-(4, 5-Dimethylthiazol-2-yl)-2, 5-diphenyltetrazolium bromide; 5 mg/ml] followed by an additional 2-4 hours incubation period at 37° C. The reaction was terminated by addition of 110 μl HCl (0.07 M in isopropanol) and OD 560 nm was measured by the SpectraMax 190 microplate reader ([…], Eugene, Oreg., USA).

PEDF mRNA [15] = test: PEDF mRNA level (qPCR) in LH-15 cells exposed to H2O2; assay type: cell-based, rat; conditions: H2O2, 24 hours
Protocol: as §5
as §4, with “Polymerase Chain Reaction (PCR) products were separated by 1.5% agarose gel electrophoresis and visualized by ethidium bromide staining.” left out

BAX = BAX protein level (western blot) in LH-15 cells under H2O2; assay type: cell-based, rat; conditions: H2O2 treatment alone, 24 hours
Protocol: as §5
Samples were homogenized in cold lysis buffer (20 mM HEPES, 150 mM NaCl and 0.2% Igepal; sigma) and centrifuged at 12,000 rpm, for 15 min, at 4° C.). Proteins were separated by sodium dodecyl sulfate polyacrylamide gel electrophoresis (SDS-PAGE; 10%; Bio-Rad, Israel). Separated proteins were transferred onto nitrocellulose membranes (Whatman GmbH, Germany) in a mini tank transfer unit (TE 22, Amersham, UK). Approximate molecular masses were determined by comparison with the migration of pre-stained protein standards (Bio-Rad). Blots were blocked for 1 hour in TBST (10 mM Tris-HCl, pH=8.0, 150 mM NaCl, 0.05% Tween 20) containing 5% skim-milk (Alba, N.Y., USA) followed by an over-night incubation at 4° C. with primary antibodies. […] Intensity of the protein bands was quantified by Image J […] (NIH).

SOD-1 = SOD-1 mRNA level (qPCR) in LH-15 cells under H2O2; assay type: cell-based, rat; conditions: H2O2 treatment alone, 24 hours
Protocol: as §5
as §4, with “Polymerase Chain Reaction (PCR) products were separated by 1.5% agarose gel electrophoresis and visualized by ethidium bromide staining.” left out

GPX-1 = GPX-1 mRNA level (qPCR) in LH-15 cells under H2O2; assay type: cell-based, rat; conditions: H2O2 treatment alone, 24 hours
Protocol: as §5
as §4, with “Polymerase Chain Reaction (PCR) products were separated by 1.5% agarose gel electrophoresis and visualized by ethidium bromide staining.” left out

CC/C(=C(\c1ccccc1)c1ccc(OCCN(C)C)cc1)c1ccccc1 [tamoxifen] was tested, and the uterine weight [1] was “dose dependent increase”, the “uterine VEGF protein level” value (VEGF [2]) was “up-regulated in a dose dependent manner” and the “uterine PEDF protein expression” value (PEDF [3]) was “down-regulated”. For the same compound, the “PNPLA2 receptor mRNA level in uteri” value (PNPLA2 [4]) was “up-regulated”, the “Laminin receptor mRNA level in uteri” value (Laminin receptor [5]) was “up-regulated” and the uterine weight (OVX ICR mice) was “increase in uterine weight”. For the same compound, the “uterine VEGF protein level” value (VEGF [6]) was “up-regulation of VEGF protein level”, the “uterine PEDF protein level” value (PEDF [7]) was “down-regulation of PEDF protein level” and the “PNPLA2 level in uteri” value (PNPLA2 [8]) was “significantly increased”. For the same compound, the “Laminin receptor level in uteri” value (Laminin receptor [9]) was “did not change significantly”, the “density of uterine blood vessels (CD34 staining)” value (CD34) was “remarkable increase in the density of uterine blood vessels” and the “ERα mRNA level in uteri” value (ERα [10]) was “up-regulated”. The “PR mRNA level in uteri” value [11] was “no significant effect”, the “ERα mRNA expression in uteri” value (ERα [12]) was “up-regulated” and the “PR expression in uteri” value [13] was “no significant effect”.

In the case of COc1cccc2c1C(=O)c1c(O)c3c(c(O)c1C2=O)C[C@@](O)(C(=O)CO)C[C@@H]3O[C@H]1C[C@H](N)[C@H](O)[C@H](C)O1 [DXR, Doxorubicin], the “PEDF mRNA level in mice ovaries” value (PEDF mRNA [14]) is reported as “significantly (P<0.05) reduced PEDF mRNA level”.

OO [H2O2] was tested, and the “cells viability (MTT)” value (LH-15 cells) was “statistically significant (P<0.05), dose dependent, decrease in cells viability”, the “PEDF mRNA level in LH-15 cells” value (PEDF mRNA [15]) was “significantly (P<0.01) reduced PEDF mRNA level, already at a concentration of 100 μM” and the BAX level (BAX) was “elevated”. The “SOD-1 mRNA level” value (SOD-1) was “decreased” and the “GPX-1 mRNA level” value (GPX-1) was “decreased”.
